Test results reported in patent US8703790B2, “Bis [O-(14-benzoylaconine-8-yl)] esters” (priority 2008, dated 2014).

Assays:
[1] = Partition coefficient log D (pH 7.4), micro HPLC method, n-octanol/phosphate buffer; assay type: physicochemical; settings: n-octanol/phosphate buffer pH 7.4
Protocol: The relative log D (pH 7.4) in this study was assessed by the micro HPLC method which is disclosed in A microscale HPLC method for the evaluation of octanol-water partition coefficients in a series of new 2-amino-2oxazolines Pehourcq, F.; Thomas, J.; Jarry, C., J. Liq. Chromatogr. Relat. Technol. (2000), 23, 443-453.
These determinations were performed with a chromatographic apparatus (Spectra Series, San Jose, USA). A reversed phase column was used: a Stability RP18 (4.6×150 mm; 5 μm particle size) with a mobile phase consisting of acetonitrile (+1‰ trifluoroacetic acid)−water (+1‰ trifluoroacetic acid) (40:60 v/v).
The compound was partitioned between n-octanol (HPLC grade) and phosphate buffer (pH=7.4). Octanol was presatured with buffer, and conversely. An amount of 1 mg of the compound was dissolved in an adequate volume of methanol in order to achieve 1 mg/mL stock solutions. Then, an appropriate aliquot of this methanolic solution was dissolved in buffer to obtain final concentration of 100 μg/mL. Under the above described chromatographic conditions, 20 μL of this aqueous phase was injected into the chromatograph, leading to the determination of a peak area before partitioning (W0).
In screw-capped tubes, 2000 μL of the aqueous phase (Vag) was then added to 10 μL of n-octanol (Voct) at pH=7.4. […] Log D was calculated from the formula: log D=log [(W0−W1)Vaq/W1Voct].

[2] = biological target: T1, purified human recombinant Top 1 (Homo sapiens, UniProt P11387); experiment: Top1-catalysed cleavage assay; assay type: biochemical; settings: 1, 10, 100 and 1000 μM
T1 sequence (P11387 1-765): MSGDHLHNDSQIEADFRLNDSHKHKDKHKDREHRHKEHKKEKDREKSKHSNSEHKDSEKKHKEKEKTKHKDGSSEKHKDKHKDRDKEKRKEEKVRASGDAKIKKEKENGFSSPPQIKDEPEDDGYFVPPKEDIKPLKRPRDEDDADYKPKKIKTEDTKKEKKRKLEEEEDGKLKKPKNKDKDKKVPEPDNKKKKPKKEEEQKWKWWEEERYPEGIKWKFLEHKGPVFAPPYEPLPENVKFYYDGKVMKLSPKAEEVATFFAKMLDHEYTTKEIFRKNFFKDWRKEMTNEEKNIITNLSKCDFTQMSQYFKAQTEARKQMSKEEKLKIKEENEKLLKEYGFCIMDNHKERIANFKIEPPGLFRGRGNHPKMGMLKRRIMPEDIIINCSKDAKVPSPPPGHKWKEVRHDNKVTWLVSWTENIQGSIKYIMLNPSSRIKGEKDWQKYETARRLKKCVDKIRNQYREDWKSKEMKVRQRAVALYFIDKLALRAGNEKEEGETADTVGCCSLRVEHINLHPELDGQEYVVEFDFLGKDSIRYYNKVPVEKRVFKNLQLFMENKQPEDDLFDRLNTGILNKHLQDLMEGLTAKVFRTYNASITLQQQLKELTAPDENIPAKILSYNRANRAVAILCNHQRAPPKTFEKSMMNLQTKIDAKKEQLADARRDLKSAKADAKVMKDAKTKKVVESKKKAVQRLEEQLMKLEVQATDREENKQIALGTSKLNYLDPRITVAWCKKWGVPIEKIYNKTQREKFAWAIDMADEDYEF
Protocol: The influence of SDD has been studied at various concentrations on Top 1 cleavage activity in comparison with Camptothecin.
The method consists in an incubation of 3′-labeled oligonucleotides with enzyme Top1, or Top 1+CPT or Top 1-SDD.
3′-end labelling of the scissile strand was performed as described previously in the publication: Conversion of topoisomerase I cleavage complexes on the leading strand of ribosomal DNA into 5′-phosphorylated DNA double-strand breaks by replication runoff. Pommier, Y.; Jenkins, J.; Kohlhagen, G.; and Leteurtre, F.; Mutat. Res. (1995), 337, 135-145.
Thus, 10 pmol of […] was incubated in labelling buffer (100 mM potassium cacodylate, pH 7.2, 2 mM CaCl2, 200 μM DTT) for 1 h at 37° C.
The reaction mixture was passed through a G-25 Sephadex spin column by centrifugation at 1000 g for 5 min to remove the excess of unincorporated nucleotide.
The 3′-labeled oligonucleotide was mixed with the same amount of unlabeled complementary strand in annealing buffer (i.e. 10 mM Tris-HCl, pH 7.8, […]) and annealed by heating the reaction mixture for 5 min at 95° C. followed by slow cool down at room temperature. […]
Imaging and quantification of the cleavage products were performed using a Typhoon Phosphorimager (Amersham Biosciences) as described in Inhibition of Topoisomerase I cleavage activity by thiol-reactive compounds. […]

## CCN1C[C@]2(COC)[C@H](O)C[C@H](OC)[C@]34C1[C@H]([C@H](OC)[C@H]23)[C@]1(OC(=O)CCCCCCC(=O)O[C@]23[C@H]5[C@@H](OC(=O)c6ccccc6)[C@](O)(C[C@H]5[C@@]56C7[C@@H]2[C@H](OC)[C@@H]5[C@](COC)(CN7CC)[C@H](O)C[C@@H]6OC)[C@@H](OC)[C@@H]3O)[C@H]2[C@@H](OC(=O)c3ccccc3)[C@](O)(C[C@H]24)[C@@H](OC)[C@@H]1O [SDD, bis[O-(14-benzoylaconine-8-yl)]-suberate]
[1]
  log D (pH 7.4): 2.86
[2]
  Top 1 inhibitory activity compared with camptothecin: no Top 1 inhibitory activity
